Results as given in the NIST ThermoML archive (doi:10.1021/acs.jced.7b00106).
“And” between values parts separate entries of the source, which are not always exact repeats. Equal entries are not always repeated.

Settings: Hot wire method

FC(F)(F)/C=C/Cl [(E)-1-chloro-3,3,3-trifluoroprop-1-ene]
Settings	thermal conductivity
423.65 K, 7612 kPa, Liquid	0.05622 W/m/K
423.65 K, 7619 kPa, Liquid	0.05627 W/m/K
423.65 K, 22720 kPa, Liquid	0.06706 W/m/K
423.66 K, 22716 kPa, Liquid	0.06723 W/m/K
423.67 K, 28114 kPa, Liquid	0.07024 W/m/K
423.69 K, 28097 kPa, Liquid	0.07022 W/m/K
423.72 K, 13391 kPa, Liquid	0.0611 W/m/K
423.72 K, 13398 kPa, Liquid	0.06111 W/m/K
423.77 K, 20045 kPa, Liquid	0.06561 W/m/K
423.77 K, 20052 kPa, Liquid	0.06562 W/m/K
423.78 K, 11664 kPa, Liquid	0.05978 W/m/K
423.79 K, 11674 kPa, Liquid	0.05981 W/m/K
423.83 K, 25690 kPa, Liquid	0.06889 W/m/K
423.84 K, 25696 kPa, Liquid	0.06888 W/m/K
423.85 K, 10139 kPa, Liquid	0.05851 W/m/K
423.86 K, 10145 kPa, Liquid	0.05848 W/m/K
423.86 K, 17471 kPa, Liquid	0.06395 W/m/K
423.87 K, 17475 kPa, Liquid	0.06396 W/m/K
423.93 K, 15376 kPa, Liquid	0.06253 W/m/K
423.93 K, 15379 kPa, Liquid	0.06254 W/m/K
423.94 K, 22691 kPa, Liquid	0.06716 W/m/K
423.95 K, 22710 kPa, Liquid	0.06724 W/m/K
424.02 K, 13386 kPa, Liquid	0.06109 W/m/K
424.02 K, 13393 kPa, Liquid	0.06113 W/m/K
451.03 K, 4240 kPa, Fluid (supercritical or subcritical phases)	0.04303 W/m/K
451.04 K, 4194 kPa, Fluid (supercritical or subcritical phases)	0.04141 W/m/K
451.04 K, 4285 kPa, Fluid (supercritical or subcritical phases)	0.0443 W/m/K
451.05 K, 4194 kPa, Fluid (supercritical or subcritical phases)	0.04138 W/m/K
451.05 K, 4285 kPa, Fluid (supercritical or subcritical phases)	0.04428 W/m/K
451.1 K, 4194 kPa, Fluid (supercritical or subcritical phases)	0.0413 W/m/K
451.11 K, 4329 kPa, Fluid (supercritical or subcritical phases)	0.04555 W/m/K
451.12 K, 4329 kPa, Fluid (supercritical or subcritical phases)	0.04569 W/m/K
451.13 K, 4146 kPa, Fluid (supercritical or subcritical phases)	0.03927 W/m/K
451.14 K, 4146 kPa, Fluid (supercritical or subcritical phases)	0.03925 W/m/K
451.15 K, 4091 kPa, Fluid (supercritical or subcritical phases)	0.03775 W/m/K
451.19 K, 4240 kPa, Fluid (supercritical or subcritical phases)	0.0441 W/m/K
451.2 K, 4146 kPa, Fluid (supercritical or subcritical phases)	0.03962 W/m/K
451.2 K, 4240 kPa, Fluid (supercritical or subcritical phases)	0.04407 W/m/K
451.21 K, 4024 kPa, Fluid (supercritical or subcritical phases)	0.03539 W/m/K
451.21 K, 4146 kPa, Fluid (supercritical or subcritical phases)	0.03961 W/m/K
451.21 K, 4329 kPa, Fluid (supercritical or subcritical phases)	0.0465 W/m/K
451.22 K, 4091 kPa, Fluid (supercritical or subcritical phases)	0.03768 W/m/K
451.22 K, 4285 kPa, Fluid (supercritical or subcritical phases)	0.04586 W/m/K
451.22 K, 4329 kPa, Fluid (supercritical or subcritical phases)	0.04642 W/m/K
451.24 K, 4335 kPa, Fluid (supercritical or subcritical phases)	0.04596 W/m/K
451.24 K, 4404 kPa, Fluid (supercritical or subcritical phases)	0.04602 W/m/K
451.25 K, 4146 kPa, Fluid (supercritical or subcritical phases)	0.03998 W/m/K
451.25 K, 4335 kPa, Fluid (supercritical or subcritical phases)	0.04625 W/m/K
451.25 K, 4404 kPa, Fluid (supercritical or subcritical phases)	0.04634 W/m/K
451.26 K, 3939 kPa, Fluid (supercritical or subcritical phases)	0.03353 W/m/K
451.27 K, 4025 kPa, Fluid (supercritical or subcritical phases)	0.03578 W/m/K
451.28 K, 4024 kPa, Fluid (supercritical or subcritical phases)	0.03519 W/m/K
451.28 K, 4091 kPa, Fluid (supercritical or subcritical phases)	0.03788 W/m/K
451.29 K, 4090 kPa, Fluid (supercritical or subcritical phases)	0.0379 W/m/K
451.3 K, 4146 kPa, Fluid (supercritical or subcritical phases)	0.04026 W/m/K
451.31 K, 4146 kPa, Fluid (supercritical or subcritical phases)	0.04022 W/m/K
451.32 K, 3831 kPa, Fluid (supercritical or subcritical phases)	0.03175 W/m/K
451.35 K, 3691 kPa, Fluid (supercritical or subcritical phases)	0.02988 W/m/K
451.35 K, 4024 kPa, Fluid (supercritical or subcritical phases)	0.03573 W/m/K
451.35 K, 4025 kPa, Fluid (supercritical or subcritical phases)	0.03528 W/m/K
451.35 K, 4091 kPa, Fluid (supercritical or subcritical phases)	0.0383 W/m/K
451.36 K, 3691 kPa, Fluid (supercritical or subcritical phases)	0.02992 W/m/K
451.36 K, 4091 kPa, Fluid (supercritical or subcritical phases)	0.03832 W/m/K
451.37 K, 4404 kPa, Fluid (supercritical or subcritical phases)	0.04741 W/m/K
451.38 K, 3649 kPa, Fluid (supercritical or subcritical phases)	0.02977 W/m/K
451.39 K, 3831 kPa, Fluid (supercritical or subcritical phases)	0.03167 W/m/K
451.4 K, 3831 kPa, Fluid (supercritical or subcritical phases)	0.03184 W/m/K
451.41 K, 3939 kPa, Fluid (supercritical or subcritical phases)	0.03376 W/m/K
451.42 K, 3508 kPa, Fluid (supercritical or subcritical phases)	0.02833 W/m/K
451.43 K, 3509 kPa, Fluid (supercritical or subcritical phases)	0.02845 W/m/K
451.44 K, 3691 kPa, Fluid (supercritical or subcritical phases)	0.02982 W/m/K
451.44 K, 4090 kPa, Fluid (supercritical or subcritical phases)	0.03859 W/m/K
451.44 K, 4091 kPa, Fluid (supercritical or subcritical phases)	0.03884 W/m/K
451.45 K, 3691 kPa, Fluid (supercritical or subcritical phases)	0.03 W/m/K
451.45 K, 4479 kPa, Fluid (supercritical or subcritical phases)	0.04701 W/m/K and 0.04717 W/m/K
451.46 K, 3650 kPa, Fluid (supercritical or subcritical phases)	0.02974 W/m/K
451.47 K, 3830 kPa, Fluid (supercritical or subcritical phases)	0.03201 W/m/K
451.47 K, 4579 kPa, Fluid (supercritical or subcritical phases)	0.04622 W/m/K
451.47 K, 4580 kPa, Fluid (supercritical or subcritical phases)	0.04624 W/m/K
451.48 K, 3651 kPa, Fluid (supercritical or subcritical phases)	0.02988 W/m/K
451.48 K, 3831 kPa, Fluid (supercritical or subcritical phases)	0.03192 W/m/K
451.5 K, 3272 kPa, Fluid (supercritical or subcritical phases)	0.02692 W/m/K
451.5 K, 3273 kPa, Fluid (supercritical or subcritical phases)	0.02709 W/m/K
451.5 K, 4908 kPa, Fluid (supercritical or subcritical phases)	0.04557 W/m/K and 0.04553 W/m/K
451.51 K, 3508 kPa, Fluid (supercritical or subcritical phases)	0.02853 W/m/K
451.51 K, 4024 kPa, Fluid (supercritical or subcritical phases)	0.03641 W/m/K
451.51 K, 4025 kPa, Fluid (supercritical or subcritical phases)	0.03631 W/m/K
451.52 K, 4479 kPa, Fluid (supercritical or subcritical phases)	0.04791 W/m/K
451.52 K, 5208 kPa, Fluid (supercritical or subcritical phases)	0.04584 W/m/K and 0.04601 W/m/K
451.53 K, 4479 kPa, Fluid (supercritical or subcritical phases)	0.04799 W/m/K
451.54 K, 3691 kPa, Fluid (supercritical or subcritical phases)	0.03 W/m/K and 0.03016 W/m/K
451.54 K, 4580 kPa, Fluid (supercritical or subcritical phases)	0.04656 W/m/K
451.55 K, 4580 kPa, Fluid (supercritical or subcritical phases)	0.04665 W/m/K
451.56 K, 3650 kPa, Fluid (supercritical or subcritical phases)	0.02992 W/m/K
451.57 K, 3650 kPa, Fluid (supercritical or subcritical phases)	0.02995 W/m/K
451.57 K, 3831 kPa, Fluid (supercritical or subcritical phases)	0.0321 W/m/K
451.58 K, 3831 kPa, Fluid (supercritical or subcritical phases)	0.0323 W/m/K
451.59 K, 4908 kPa, Fluid (supercritical or subcritical phases)	0.04582 W/m/K and 0.04575 W/m/K
451.6 K, 5208 kPa, Fluid (supercritical or subcritical phases)	0.04598 W/m/K and 0.04588 W/m/K
451.61 K, 3273 kPa, Fluid (supercritical or subcritical phases)	0.02708 W/m/K
451.61 K, 4734 kPa, Fluid (supercritical or subcritical phases)	0.046 W/m/K
451.62 K, 3273 kPa, Fluid (supercritical or subcritical phases)	0.027 W/m/K
451.62 K, 3508 kPa, Fluid (supercritical or subcritical phases)	0.02859 W/m/K
451.62 K, 3509 kPa, Fluid (supercritical or subcritical phases)	0.02863 W/m/K
451.62 K, 4579 kPa, Fluid (supercritical or subcritical phases)	0.04727 W/m/K
451.62 K, 4580 kPa, Fluid (supercritical or subcritical phases)	0.0472 W/m/K
451.62 K, 4734 kPa, Fluid (supercritical or subcritical phases)	0.0461 W/m/K
451.64 K, 3691 kPa, Fluid (supercritical or subcritical phases)	0.03032 W/m/K and 0.03035 W/m/K
451.66 K, 2992 kPa, Fluid (supercritical or subcritical phases)	0.02577 W/m/K
451.67 K, 2990 kPa, Fluid (supercritical or subcritical phases)	0.02601 W/m/K
451.67 K, 3650 kPa, Fluid (supercritical or subcritical phases)	0.02999 W/m/K
451.67 K, 4909 kPa, Fluid (supercritical or subcritical phases)	0.04592 W/m/K
451.68 K, 4909 kPa, Fluid (supercritical or subcritical phases)	0.04602 W/m/K
451.68 K, 5207 kPa, Fluid (supercritical or subcritical phases)	0.04609 W/m/K
451.69 K, 5207 kPa, Fluid (supercritical or subcritical phases)	0.04582 W/m/K
451.7 K, 4580 kPa, Fluid (supercritical or subcritical phases)	0.04772 W/m/K
451.7 K, 4734 kPa, Fluid (supercritical or subcritical phases)	0.04631 W/m/K
451.71 K, 4580 kPa, Fluid (supercritical or subcritical phases)	0.04774 W/m/K
451.71 K, 4734 kPa, Fluid (supercritical or subcritical phases)	0.04636 W/m/K
451.72 K, 3272 kPa, Fluid (supercritical or subcritical phases)	0.02716 W/m/K
451.73 K, 2617 kPa, Fluid (supercritical or subcritical phases)	0.02492 W/m/K and 0.02475 W/m/K
451.73 K, 3273 kPa, Fluid (supercritical or subcritical phases)	0.02707 W/m/K
451.74 K, 3509 kPa, Fluid (supercritical or subcritical phases)	0.02878 W/m/K and 0.02877 W/m/K
451.76 K, 4908 kPa, Fluid (supercritical or subcritical phases)	0.04609 W/m/K
451.76 K, 4909 kPa, Fluid (supercritical or subcritical phases)	0.04628 W/m/K
451.77 K, 3650 kPa, Fluid (supercritical or subcritical phases)	0.0303 W/m/K
451.77 K, 5207 kPa, Fluid (supercritical or subcritical phases)	0.0462 W/m/K
451.77 K, 5208 kPa, Fluid (supercritical or subcritical phases)	0.04621 W/m/K
451.78 K, 2992 kPa, Fluid (supercritical or subcritical phases)	0.02586 W/m/K
451.78 K, 3650 kPa, Fluid (supercritical or subcritical phases)	0.03036 W/m/K
451.79 K, 2166 kPa, Fluid (supercritical or subcritical phases)	0.02402 W/m/K
451.79 K, 2992 kPa, Fluid (supercritical or subcritical phases)	0.02587 W/m/K
451.8 K, 2167 kPa, Fluid (supercritical or subcritical phases)	0.02395 W/m/K
451.8 K, 4735 kPa, Fluid (supercritical or subcritical phases)	0.0468 W/m/K
451.85 K, 3273 kPa, Fluid (supercritical or subcritical phases)	0.02717 W/m/K and 0.02719 W/m/K
451.85 K, 3509 kPa, Fluid (supercritical or subcritical phases)	0.02883 W/m/K
451.86 K, 1669 kPa, Fluid (supercritical or subcritical phases)	0.0235 W/m/K
451.86 K, 1672 kPa, Fluid (supercritical or subcritical phases)	0.02345 W/m/K
451.87 K, 2617 kPa, Fluid (supercritical or subcritical phases)	0.02483 W/m/K
451.87 K, 2618 kPa, Fluid (supercritical or subcritical phases)	0.02473 W/m/K
451.89 K, 4734 kPa, Fluid (supercritical or subcritical phases)	0.0473 W/m/K
451.89 K, 4735 kPa, Fluid (supercritical or subcritical phases)	0.04729 W/m/K
451.91 K, 2992 kPa, Fluid (supercritical or subcritical phases)	0.02598 W/m/K
451.92 K, 2991 kPa, Fluid (supercritical or subcritical phases)	0.02605 W/m/K
451.93 K, 5207 kPa, Fluid (supercritical or subcritical phases)	0.04646 W/m/K
